The values below are quoted from earlier work in patent US20100112105A1, “Antimicrobial efficacy of aframomum Melegueta extract against propionibacterium acnes” (ACCESS BUSINESS GROUP INTERNATIONAL LLC, priority 2008, published 2010).

This data set concerns Mycobacterium chelonei, M. intracellulare, M. smegmatis, and M. xenopi. Particulars: Galal, Pharmaceutical Biology 1996.

For `CCCCCCCC(=O)CCc1ccc(O)c(OC)c1` [6-paradol], the activity against mycobacteria result was “active”.
In the case of `CCCCC/C=C/C(=O)CCc1ccc(O)c(OC)c1` [6-shogaol], the activity against mycobacteria entry was “active”.
In the case of `COc1cc(CCC(C)=O)ccc1O` [gingerone], the activity against mycobacteria entry is “inactive”.
